Measurements reported in US20100081713A1, “COMPOSITIONS AND METHODS FOR TREATING VIRAL INFECTIONS” (priority 2008, published 2010).
“Also recorded” adds a separate entry of the source.

Test system: influenza A/PR/8/34
Design: species or system C57/BL6 mice
Conditions: mouse, in vivo

CN[C@H]1CC[C@@H](c2ccc(Cl)c(Cl)c2)c2ccccc21 [Sertraline]
survival rate, result in words: dose dependant increase in survival rate; also recorded: improves survival rate
